This passage reports Kd results from patent US20250064941A1, “SIGLEC LIGANDS, CONJUGATES, AND METHODS OF USE THEREOF” (Osprey Biopharmaceuticals, Inc., priority 2023, published 2025).

The target in test [1] is T1, mouse Siglec-2-Fc-Avi (CD22) (Mus musculus, UniProt P35329).
T1 construct: made in house
T1 sequence (P35329 22-708 limits assumed): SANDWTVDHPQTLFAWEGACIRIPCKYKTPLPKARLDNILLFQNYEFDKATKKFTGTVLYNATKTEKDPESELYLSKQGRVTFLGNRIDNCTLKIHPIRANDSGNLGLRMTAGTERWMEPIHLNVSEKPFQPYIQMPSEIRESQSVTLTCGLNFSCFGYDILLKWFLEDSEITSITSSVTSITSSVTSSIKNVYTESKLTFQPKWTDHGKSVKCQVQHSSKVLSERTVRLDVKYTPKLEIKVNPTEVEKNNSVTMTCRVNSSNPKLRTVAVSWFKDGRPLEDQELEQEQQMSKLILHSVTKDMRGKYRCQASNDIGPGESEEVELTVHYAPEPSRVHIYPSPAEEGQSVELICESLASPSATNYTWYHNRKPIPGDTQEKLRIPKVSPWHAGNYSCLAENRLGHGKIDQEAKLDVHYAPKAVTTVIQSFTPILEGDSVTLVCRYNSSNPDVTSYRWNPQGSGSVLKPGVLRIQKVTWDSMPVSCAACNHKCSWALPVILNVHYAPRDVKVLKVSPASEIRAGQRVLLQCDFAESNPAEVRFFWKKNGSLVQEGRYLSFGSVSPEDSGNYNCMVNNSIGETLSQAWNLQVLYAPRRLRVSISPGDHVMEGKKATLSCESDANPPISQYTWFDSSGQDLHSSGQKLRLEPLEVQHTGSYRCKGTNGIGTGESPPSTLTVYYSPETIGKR
The test is described as follows: SPR binding affinity to mouse CD22. The settings on record: steady-state analysis. Put shortly: (§1)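 SialoExo pretreatment, 4 h 37° C.; biotinylated CD22 on SA chip, Biacore 8K. Buffer 10 mM HEPES, 150 mM NaCl, 0.05% Tween-20, pH 7.5, 1% DMSO. Dissociation 120 s; solvent-corrected; steady-state KD.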
Background: SPR reads the build-up and loss of mass on a sensor chip optically.

For the next test, the target named is cynomolgus Siglec-2/CD22 (Macaca fascicularis, UniProt A0A2K5WCZ6). In words: biochemical. It is filed as binding. Conditions: SPR, steady-state analysis; read-out: Affinity cyno CD22. Put shortly: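 Compound binding measured by steady-state SPR analysis, 120 s dissociation, in HEPES-NaCl-Tween buffer pH 7.5 containing 1% DMSO, DMSO solvent-corrected. Surface: cyno CD22, sialic acids first stripped by SialoExo for 4 h at 37° C., then amine-coupled onto CM5.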

Test [2] addresses T2, human Siglec-2/CD22 protein (Homo sapiens, UniProt P20273).
T2 construct: purchased Acro Biosystems SI2-H82E3
T2 sequence (P20273 20-847): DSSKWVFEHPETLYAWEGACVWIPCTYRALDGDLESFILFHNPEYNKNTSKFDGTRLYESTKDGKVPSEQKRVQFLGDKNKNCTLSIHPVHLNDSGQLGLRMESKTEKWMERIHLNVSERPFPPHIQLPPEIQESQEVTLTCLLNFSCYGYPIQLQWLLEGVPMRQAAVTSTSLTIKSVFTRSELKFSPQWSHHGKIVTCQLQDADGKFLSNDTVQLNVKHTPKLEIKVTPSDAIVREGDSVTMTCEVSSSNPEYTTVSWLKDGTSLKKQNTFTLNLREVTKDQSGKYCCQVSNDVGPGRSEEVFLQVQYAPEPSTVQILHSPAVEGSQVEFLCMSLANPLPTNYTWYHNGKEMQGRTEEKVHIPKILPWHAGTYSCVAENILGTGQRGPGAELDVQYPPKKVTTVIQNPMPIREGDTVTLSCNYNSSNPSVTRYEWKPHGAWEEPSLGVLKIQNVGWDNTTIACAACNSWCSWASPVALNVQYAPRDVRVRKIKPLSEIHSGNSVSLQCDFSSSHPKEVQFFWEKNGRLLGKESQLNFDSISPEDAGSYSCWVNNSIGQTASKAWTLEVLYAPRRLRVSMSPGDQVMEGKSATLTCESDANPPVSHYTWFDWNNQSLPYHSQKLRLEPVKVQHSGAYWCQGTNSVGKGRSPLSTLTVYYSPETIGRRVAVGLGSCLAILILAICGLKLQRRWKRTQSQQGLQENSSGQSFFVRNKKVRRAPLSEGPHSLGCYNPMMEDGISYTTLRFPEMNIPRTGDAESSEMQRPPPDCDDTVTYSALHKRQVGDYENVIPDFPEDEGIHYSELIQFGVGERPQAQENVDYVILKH
In words: SPR binding affinity to human CD22. Conditions: steady-state analysis. Put shortly: as §1

Sequence of cynomolgus Siglec-2/CD22 (A0A2K5WCZ6 entry or part of it): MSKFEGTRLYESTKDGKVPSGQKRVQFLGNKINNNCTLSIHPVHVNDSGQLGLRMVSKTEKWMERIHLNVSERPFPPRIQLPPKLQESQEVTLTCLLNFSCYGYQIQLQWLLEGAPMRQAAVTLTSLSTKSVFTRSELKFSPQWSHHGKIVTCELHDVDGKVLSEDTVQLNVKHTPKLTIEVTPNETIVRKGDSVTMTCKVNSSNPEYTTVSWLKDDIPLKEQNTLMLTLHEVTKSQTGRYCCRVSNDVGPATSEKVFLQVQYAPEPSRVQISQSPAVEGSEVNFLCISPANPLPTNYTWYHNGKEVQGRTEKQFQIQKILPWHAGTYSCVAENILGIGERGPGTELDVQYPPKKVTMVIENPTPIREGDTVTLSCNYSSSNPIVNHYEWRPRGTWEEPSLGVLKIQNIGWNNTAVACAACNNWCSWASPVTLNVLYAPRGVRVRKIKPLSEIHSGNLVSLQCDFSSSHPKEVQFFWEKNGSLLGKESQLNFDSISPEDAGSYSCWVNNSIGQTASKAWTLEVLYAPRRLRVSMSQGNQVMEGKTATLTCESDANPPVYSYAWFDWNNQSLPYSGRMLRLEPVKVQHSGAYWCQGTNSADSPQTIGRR

`C#CCCCCCCc1cn([C@]2(C(=O)O)C[C@H](O)[C@@H](NC(=O)CO)[C@H]([C@H](O)[C@H](O)CNC(=O)Cc3cccc(O)c3)O2)nn1` [Compound 147, (2R,4S,5R,6R)-6-((1R,2R)-1,2-dihydroxy-3-(2-(3-hydroxyphenyl)acetamido)propyl)-4-hydroxy-5-(2-hydroxyacetamido)-2-(4-(oct-7-yn-1-yl)-1H-1,2,3-triazol-1-yl)tetrahydro-2H-pyran-2-carboxylic acid]: the Kd (in test [1]; on cynomolgus Siglec-2/CD22; in test [2]) was 1000 to 10000 nM throughout.
Consider `C#CCOCCOCCOCCOCCC(=O)NCCOCCOCCO[C@]1(C(=O)O)C[C@H](O)[C@@H](NC(=O)CO)[C@H]([C@H](O)[C@H](O)CNC(=O)Cc2ccc(Cl)cc2)O1` [Compound 111, (2R,4S,5R,6R)-6-((1R,2R)-3-(2-(4-chlorophenyl)acetamido)-1,2-dihydroxypropyl)-4-hydroxy-5-(2-hydroxyacetamido)-2-((10-oxo-3,6,13,16,19,22-hexaoxa-9-azapentacos-24-yn-1-yl)oxy)tetrahydro-2H-pyran-2-carboxylic acid], for which the Kd in test [1] is 1000 to 10000 nM; on cynomolgus Siglec-2/CD22 it was less than 1000 nM; in test [2], 1000 to 10000 nM.
As for `C#CCOCCCCCCO[C@]1(C(=O)O)C[C@H](O)[C@@H](NC(=O)Cc2nn[nH]n2)[C@H]([C@H](O)[C@H](O)CNC(=O)Cc2ccc(Cl)cc2)O1` [Compound 208, (2R,4S,5R,6R)-5-(2-(2H-tetrazol-5-yl)acetamido)-6-((1R,2R)-3-(2-(4-chlorophenyl)acetamido)-1,2-dihydroxypropyl)-4-hydroxy-2-((6-(prop-2-yn-1-yloxy)hexyl)oxy)tetrahydro-2H-pyran-2-carboxylic acid], the Kd in test [1] was more than 10000 nM; on cynomolgus Siglec-2/CD22, less than 1000 nM; in test [2], 1000 to 10000 nM.
As to `CCCNC(=O)CCCCCCO[C@]1(C(=O)O)C[C@H](O)[C@@H](NC(=O)CO)[C@H]([C@H](O)[C@H](O)CNC(=O)Cc2cccc(O)c2)O1` [Compound 207, (2R,4S,5R,6R)-6-((1R,2R)-1,2-dihydroxy-3-(2-(3-hydroxyphenyl)acetamido)propyl)-4-hydroxy-5-(2-hydroxyacetamido)-2-((7-oxo-7-(propylamino)heptyl)oxy)tetrahydro-2H-pyran-2-carboxylic acid], the Kd (in test [1]; on cynomolgus Siglec-2/CD22; in test [2]) was 1000 to 10000 nM in each case.
In the case of `C#CCOCCCCCCO[C@]1(C(=O)O)C[C@H](O)[C@@H](NC(=O)CNC)[C@H]([C@H](O)[C@H](O)CNC(=O)Cc2ccc(Cl)cc2)O1` [Compound 211], the Kd (in test [1]; at cynomolgus Siglec-2/CD22; in test [2]) was less than 1000 nM each time.
With `C#CCCOc1ccc(CO[C@]2(C(=O)O)C[C@H](O)[C@@H](NC(=O)CO)[C@H]([C@H](O)[C@H](O)CNC(=O)Cc3cccc(-c4ccc(O)cc4)c3)O2)cc1` [Compound 44, (2R,4S,5R,6R)-2-((4-(but-3-yn-1-yloxy)benzyl)oxy)-6-((1R,2R)-1,2-dihydroxy-3-(2-(4′-hydroxy-[1,1′-biphenyl]-3-yl)acetamido)propyl)-4-hydroxy-5-(2-hydroxyacetamido)tetrahydro-2H-pyran-2-carboxylic acid], the results for the Kd (in test [1]; at cynomolgus Siglec-2/CD22; in test [2]) were 1000 to 10000 nM, 1000 to 10000 nM and less than 1000 nM, respectively.
`C#CCOCCOCCNc1c(NCCCCCCO[C@]2(C(=O)O)C[C@H](O)[C@@H](NC(=O)CO)[C@H]([C@H](O)[C@H](O)CNC(=O)c3ccc(C(F)F)cc3)O2)c(=O)c1=O` [Compound 231, (2R,4S,5R,6R)-6-((1R,2R)-3-(4-(difluoromethyl)benzamido)-1,2-dihydroxypropyl)-2-((6-((3,4-dioxo-2-((2-(2-(prop-2-yn-1-yloxy)ethoxy)ethyl)amino)cyclobut-1-en-1-yl)amino)hexyl)oxy)-4-hydroxy-5-(2-hydroxyacetamido)tetrahydro-2H-pyran-2-carboxylic acid]: the Kd in test [1] was 1000 to 10000 nM; at cynomolgus Siglec-2/CD22, less than 1000 nM; in test [2], less than 1000 nM.
`C#CCOCCCCCCO[C@]1(C(=O)O)C[C@H](O)[C@@H](NC(C)=S)[C@H]([C@H](O)[C@H](O)CNC(=O)Cc2ccc(Cl)cc2)O1` [Compound 26, (2R,4S,5R,6R)-6-((1R,2R)-3-(2-(4-chlorophenyl)acetamido)-1,2-dihydroxypropyl)-5-ethanethioamido-4-hydroxy-2-((6-(prop-2-yn-1-yloxy)hexyl)oxy)tetrahydro-2H-pyran-2-carboxylic acid]: the Kd (in test [1]; on cynomolgus Siglec-2/CD22; in test [2]) was less than 1000 nM each time.
Take `CC(=O)NCCOCCOCCOCCOCCNC(=O)CCCCCCO[C@]1(C(=O)O)C[C@H](O)[C@@H](NC(=O)CO)[C@H]([C@H](O)[C@H](O)CNC(=O)Cc2ccc(-c3nnn[nH]3)cc2)O1` [Cpd. 266, (2R,4S,5R,6R)-6-((1R,2R)-3-(2-(4-(1H-tetrazol-5-yl)phenyl)acetamido)-1,2-dihydroxypropyl)-2-((2,19-dioxo-6,9,12,15-tetraoxa-3,18-diazapentacosan-25-yl)oxy)-4-hydroxy-5-(2-hydroxyacetamido) tetrahydro-2H-pyran-2-carboxylic acid]: the Kd in test [1] is 1000 to 10000 nM; at cynomolgus Siglec-2/CD22 it was less than 1000 nM; in test [2], less than 1000 nM.
For `O=C(O)CCCCCCO[C@]1(C(=O)O)C[C@H](O)[C@@H](NC(=O)CO)[C@H]([C@H](O)[C@H](O)CNC(=O)Cc2ccc(Cl)cc2)O1` [Compound 98, (2R,4S,5R,6R)-2-((6-carboxyhexyl)oxy)-6-((1R,2R)-3-(2-(4-chlorophenyl)acetamido)-1,2-dihydroxypropyl)-4-hydroxy-5-(2-hydroxyacetamido)tetrahydro-2H-pyran-2-carboxylic acid], the Kd in test [1] is 1000 to 10000 nM; at cynomolgus Siglec-2/CD22, less than 1000 nM; in test [2], less than 1000 nM.
For the compound `C#CCCOc1ccc(CS[C@]2(C(=O)O)C[C@H](O)[C@@H](NC(=O)CO)[C@H]([C@H](O)[C@H](O)CNC(=O)Cc3cccc(O)c3)O2)cc1` [Compound 149, (2S,4S,5R,6R)-2-((4-(but-3-yn-1-yloxy)benzyl)thio)-6-((1R,2R)-1,2-dihydroxy-3-(2-(3-hydroxyphenyl)acetamido)propyl)-4-hydroxy-5-(2-hydroxyacetamido)tetrahydro-2H-pyran-2-carboxylic acid], the Kd in test [1] was 1000 to 10000 nM; on cynomolgus Siglec-2/CD22, 1000 to 10000 nM; in test [2] it was less than 1000 nM.
Take `C#CCOCCCCCCO[C@]1(C(=O)O)C[C@H](O)[C@@H](Nc2c(N)c(=O)c2=O)[C@H]([C@H](O)[C@H](O)CNC(=O)Cc2ccc(Cl)cc2)O1` [Compound 190, (2R,4S,5R,6R)-5-((2-amino-3,4-dioxocyclobut-1-en-1-yl)amino)-6-((1R,2R)-3-(2-(4-chlorophenyl)acetamido)-1,2-dihydroxypropyl)-4-hydroxy-2-((6-(prop-2-yn-1-yloxy)hexyl)oxy)tetrahydro-2H-pyran-2-carboxylic acid]: the Kd is 1000 to 10000 nM in test [1], less than 1000 nM at cynomolgus Siglec-2/CD22 and less than 1000 nM in test [2].
